Target: T1, ABCB1 (Homo sapiens, UniProt P08183)
T1 construct: ABCB1 in membrane vesicles from High Five insect cells
Assay: vanadate-sensitive ATPase assay in membrane vesicles
Assay type: biochemical

T1 sequence (P08183 whole entry): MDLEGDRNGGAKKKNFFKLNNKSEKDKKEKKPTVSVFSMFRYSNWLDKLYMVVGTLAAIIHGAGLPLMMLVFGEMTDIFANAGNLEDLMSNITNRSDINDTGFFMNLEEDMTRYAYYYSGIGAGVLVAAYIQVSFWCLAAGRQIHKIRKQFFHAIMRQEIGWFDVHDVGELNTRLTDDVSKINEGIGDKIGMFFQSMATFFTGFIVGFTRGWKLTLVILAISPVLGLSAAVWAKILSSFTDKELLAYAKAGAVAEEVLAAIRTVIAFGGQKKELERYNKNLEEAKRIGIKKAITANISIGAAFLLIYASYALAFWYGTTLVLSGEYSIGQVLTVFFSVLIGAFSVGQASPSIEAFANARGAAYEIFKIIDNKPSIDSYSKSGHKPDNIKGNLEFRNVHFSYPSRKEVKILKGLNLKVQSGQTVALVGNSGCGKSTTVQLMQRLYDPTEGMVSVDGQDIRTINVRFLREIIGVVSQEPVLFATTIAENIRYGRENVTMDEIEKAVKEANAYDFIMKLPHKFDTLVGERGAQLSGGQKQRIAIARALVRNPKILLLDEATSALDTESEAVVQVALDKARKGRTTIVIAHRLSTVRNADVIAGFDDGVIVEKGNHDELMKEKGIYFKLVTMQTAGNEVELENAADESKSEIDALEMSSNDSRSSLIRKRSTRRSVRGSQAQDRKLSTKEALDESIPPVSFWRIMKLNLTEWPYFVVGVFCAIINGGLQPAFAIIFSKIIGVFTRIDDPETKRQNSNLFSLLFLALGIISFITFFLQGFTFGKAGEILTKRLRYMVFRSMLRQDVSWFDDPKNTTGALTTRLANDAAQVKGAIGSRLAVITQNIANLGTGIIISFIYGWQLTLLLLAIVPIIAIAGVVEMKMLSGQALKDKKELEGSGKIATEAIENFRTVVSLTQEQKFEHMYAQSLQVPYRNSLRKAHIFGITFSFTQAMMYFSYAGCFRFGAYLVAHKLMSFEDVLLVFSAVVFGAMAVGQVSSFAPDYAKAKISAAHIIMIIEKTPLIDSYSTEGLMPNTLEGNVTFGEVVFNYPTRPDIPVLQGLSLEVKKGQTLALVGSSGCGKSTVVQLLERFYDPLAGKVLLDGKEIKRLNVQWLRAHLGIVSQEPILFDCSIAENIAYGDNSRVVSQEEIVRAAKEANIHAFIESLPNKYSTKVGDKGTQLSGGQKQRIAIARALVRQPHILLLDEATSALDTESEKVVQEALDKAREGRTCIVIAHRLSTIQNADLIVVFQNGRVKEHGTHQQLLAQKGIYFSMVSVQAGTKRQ

## CCn1c(=O)c(-c2ccc(Cl)cc2Cl)cc2cnc(Nc3ccc(N4CCNCC4)c(F)c3)nc21 [FRAX486]
  IC50: 20 nM
